Reference: ChEMBL document CHEMBL4406807, “Discovery of 3,4,6-Trisubstituted Piperidine Derivatives as Orally Active, Low hERG Blocking Akt Inhibitors via Conformational Restriction and Structure-Based Design” (J Med Chem, 2019)

Legend:
hERG (KCNH2) = hERG (KCNH2) (Homo sapiens, UniProt Q12809); assay: Inhibition of ERG in human HEK293 cells at 3 uM at -80 mV holding potential by whole-cell patch clamp assay relative to control; type: cell-based; settings: HEK293 cells expressing ERG
[1] = target: Potassium/sodium hyperpolarization-activated cyclic nucleotide-gated channel 3 (Homo sapiens, UniProt Q9P1Z3); assay: Inhibition of HCN3 (unknown origin) at 3 uM relative to control
[2] = Tmax in Sprague-Dawley rat at 40 mg/kg, ig measured up to 24 hrs by LC-MS/MS analysis; type: ADME, organism-based; settings: in vivo, po
[3] = Drug level in tumor of human SKOV3 cells xenografted in BALB/c nude mouse at 50 mg/kg administered for 7 consecutive days; type: ADME, organism-based, Neoplasm; settings: in vivo
SK-OV-3 [4] = assay: Induction of apoptosis in human SKOV3 cells at 0.4 uM by FACS based flow cytometric analysis (reference value: 7.63%); type: functional
HCT-116 = assay: cells; settings: Homo sapiens, HCT-116, 72 h
[5] = target: Potassium voltage-gated channel subfamily A member 3 (Homo sapiens, UniProt P22001); assay: Inhibition of Kv1.3 (unknown origin) at 3 uM relative to control
[6] = target: Potassium/sodium hyperpolarization-activated cyclic nucleotide-gated channel 2 (Homo sapiens, UniProt Q9UL51); assay: Inhibition of HCN2 (unknown origin) at 3 uM relative to control
[7] = target: Serine/threonine-protein kinase AKT (Homo sapiens, UniProt P31751+Q9Y243+P31749); assay: Inhibition of Akt in human LNCaP cells assessed as reduction in PRAS40 phosphorylation at T246 residue after 1 hr by ELISA; type: cell-based
[8] = Stability in mouse plasma at 100 ug/ml after 1 hr by LC/MS analysis; type: ADME, cell-free; settings: read-out: Stability
[9] = Microsomal stability in rat liver microsomes assessed as compound remaining at 100 ug/ml in presence of NADPH measured at 1.5 hrs by LC/MS analysis; type: ADME, Microsome; settings: read-out: Stability
[10] = MRT (0 to infinity) in Sprague-Dawley rat at 40 mg/kg, ig measured up to 24 hrs by LC-MS/MS analysis; type: ADME, organism-based; settings: in vivo, po
[11] = Toxicity in ICR mouse assessed as effect on biochemical parameter at 80 to 160 mg/kg, ig; type: organism-based; settings: in vivo, po
[12] = target: Potassium voltage-gated channel subfamily A member 5 (Homo sapiens, UniProt P22460); assay: Inhibition of Kv1.5 (unknown origin) at 3 uM relative to control
[13] = Stability in human plasma at 100 ug/ml after 1 hr by LC/MS analysis; type: ADME, cell-free; settings: read-out: Stability
[14] = Microsomal stability in dog liver microsomes assessed as compound remaining at 100 ug/ml in presence of NADPH measured at 1.5 hrs by LC/MS analysis; type: ADME, Canis lupus familiaris, Microsome; settings: read-out: Stability
[15] = Half-life in ICR mouse at 40 mg/kg, ig measured up to 48 hrs by LC-MS/MS analysis; type: ADME, organism-based; settings: in vivo, po
[16] = target: Rho-associated protein kinase 1 (Homo sapiens, UniProt Q13464); assay: Inhibition of human ROCK1 by mobile shift assay
[17] = target: Potassium voltage-gated channel subfamily A member 4 (Homo sapiens, UniProt P22459); assay: Inhibition of Kv1.4 (unknown origin) at 3 uM relative to control
[18] = Toxicity in ICR mouse assessed as reduction in organ to brain weight ratio of thymus at 80 to 160 mg/kg, ig once daily for 7 days; type: organism-based; settings: in vivo, po, 168 h
[19] = AUC (0 to infinity) in ICR mouse at 40 mg/kg, ig measured up to 48 hrs by LC-MS/MS analysis; type: ADME, organism-based; set-up: dose 40 mg/kg, time infinity, route […]; settings: in vivo, po
[20] = target: RAC-alpha serine/threonine-protein kinase (Homo sapiens, UniProt P31749)
Description: Inhibition of human Akt1 expressed in Escherichia coli using STK Substrate 2-biotin as substrate incubated for 1 hr by HTRF assay

[21] = target: Potassium/sodium hyperpolarization-activated cyclic nucleotide-gated channel 1 (Homo sapiens, UniProt O60741); assay: Inhibition of HCN1 (unknown origin) at 3 uM relative to control
[22] = target: RAC-beta serine/threonine-protein kinase (Homo sapiens, UniProt P31751); assay: Inhibition of human Akt2 by mobile shift assay
[23] = MRT (0 to infinity) in ICR mouse at 40 mg/kg, ig measured up to 48 hrs by LC-MS/MS analysis; type: ADME, organism-based; settings: in vivo, po
[24] = Cmax in Sprague-Dawley rat at 40 mg/kg, ig measured up to 24 hrs by LC-MS/MS analysis; type: ADME, organism-based; set-up: dose 40 mg/kg, route […]; settings: in vivo, po
[25] = target: Potassium voltage-gated channel subfamily A member 10 (Homo sapiens, UniProt Q16322); assay: Inhibition of Kv1.8 (unknown origin) at 3 uM relative to control
[26] = AUC (0 to t) in Sprague-Dawley rat at 40 mg/kg, ig measured up to 24 hrs by LC-MS/MS analysis; type: ADME, organism-based; set-up: time < 24 hr, dose 40 mg/kg, route […]; settings: in vivo, po
[27] = Protein binding in mouse plasma at 300 ng/ml after 8 hrs by equilibrium dialysis; type: ADME, cell-free; settings: read-out: PPB (converted)
[28] = Oral bioavailability in ICR mouse at 40 mg/kg measured up to 48 hrs by LC-MS/MS analysis; type: ADME, organism-based; settings: in vivo
[29] = target: Potassium/sodium hyperpolarization-activated cyclic nucleotide-gated channel 4 (Homo sapiens, UniProt Q9Y3Q4); assay: Inhibition of HCN4 (unknown origin) at 3 uM relative to control
[30] = target: Potassium voltage-gated channel subfamily A member 7 (Homo sapiens, UniProt Q96RP8); assay: Inhibition of Kv1.7 (unknown origin) at 3 uM relative to control
[31] = Toxicity in BALB/c nude mouse xenografted with human SKOV3 cells assessed as effect on body weight at 60 to 80 mg/kg, po administered once daily for 21 days; type: organism-based; settings: in vivo, 504 h
[32] = AUC (0 to infinity) in Sprague-Dawley rat at 40 mg/kg, ig measured up to 24 hrs by LC-MS/MS analysis; type: ADME, organism-based; set-up: dose 40 mg/kg, route […], time infinity; settings: in vivo, po
[33] = Half-life in Sprague-Dawley rat at 40 mg/kg, ig measured up to 24 hrs by LC-MS/MS analysis; type: ADME, organism-based; settings: in vivo, po
[34] = target: Ribosomal protein S6 kinase alpha-1 (Homo sapiens, UniProt Q15418); assay: Inhibition of RSK1 (unknown origin) by mobility shift assay
[35] = Tmax in ICR mouse at 40 mg/kg, ig measured up to 48 hrs by LC-MS/MS analysis; type: ADME, organism-based; settings: in vivo, po
[36] = target: Ribosomal protein S6 kinase beta-1 (Homo sapiens, UniProt P23443); assay: Inhibition of human P70S6K by mobility shift assay
SK-OV-3 [37] = assay: Induction of apoptosis in human SKOV3 cells at 2 uM by FACS based flow cytometric analysis (reference value: 7.63%); type: functional
[38] = Inhibition of recombinant His-tagged human PKA expressed in Escherichia coli using Ser/Thr 01 as substrate after 1 hr by Z-lyte assay
[39] = target: Cystic fibrosis transmembrane conductance regulator (Homo sapiens, UniProt P13569); assay: Inhibition of CFTR (unknown origin)
Chain of Cystic fibrosis transmembrane conductance regulator (P13569 whole entry): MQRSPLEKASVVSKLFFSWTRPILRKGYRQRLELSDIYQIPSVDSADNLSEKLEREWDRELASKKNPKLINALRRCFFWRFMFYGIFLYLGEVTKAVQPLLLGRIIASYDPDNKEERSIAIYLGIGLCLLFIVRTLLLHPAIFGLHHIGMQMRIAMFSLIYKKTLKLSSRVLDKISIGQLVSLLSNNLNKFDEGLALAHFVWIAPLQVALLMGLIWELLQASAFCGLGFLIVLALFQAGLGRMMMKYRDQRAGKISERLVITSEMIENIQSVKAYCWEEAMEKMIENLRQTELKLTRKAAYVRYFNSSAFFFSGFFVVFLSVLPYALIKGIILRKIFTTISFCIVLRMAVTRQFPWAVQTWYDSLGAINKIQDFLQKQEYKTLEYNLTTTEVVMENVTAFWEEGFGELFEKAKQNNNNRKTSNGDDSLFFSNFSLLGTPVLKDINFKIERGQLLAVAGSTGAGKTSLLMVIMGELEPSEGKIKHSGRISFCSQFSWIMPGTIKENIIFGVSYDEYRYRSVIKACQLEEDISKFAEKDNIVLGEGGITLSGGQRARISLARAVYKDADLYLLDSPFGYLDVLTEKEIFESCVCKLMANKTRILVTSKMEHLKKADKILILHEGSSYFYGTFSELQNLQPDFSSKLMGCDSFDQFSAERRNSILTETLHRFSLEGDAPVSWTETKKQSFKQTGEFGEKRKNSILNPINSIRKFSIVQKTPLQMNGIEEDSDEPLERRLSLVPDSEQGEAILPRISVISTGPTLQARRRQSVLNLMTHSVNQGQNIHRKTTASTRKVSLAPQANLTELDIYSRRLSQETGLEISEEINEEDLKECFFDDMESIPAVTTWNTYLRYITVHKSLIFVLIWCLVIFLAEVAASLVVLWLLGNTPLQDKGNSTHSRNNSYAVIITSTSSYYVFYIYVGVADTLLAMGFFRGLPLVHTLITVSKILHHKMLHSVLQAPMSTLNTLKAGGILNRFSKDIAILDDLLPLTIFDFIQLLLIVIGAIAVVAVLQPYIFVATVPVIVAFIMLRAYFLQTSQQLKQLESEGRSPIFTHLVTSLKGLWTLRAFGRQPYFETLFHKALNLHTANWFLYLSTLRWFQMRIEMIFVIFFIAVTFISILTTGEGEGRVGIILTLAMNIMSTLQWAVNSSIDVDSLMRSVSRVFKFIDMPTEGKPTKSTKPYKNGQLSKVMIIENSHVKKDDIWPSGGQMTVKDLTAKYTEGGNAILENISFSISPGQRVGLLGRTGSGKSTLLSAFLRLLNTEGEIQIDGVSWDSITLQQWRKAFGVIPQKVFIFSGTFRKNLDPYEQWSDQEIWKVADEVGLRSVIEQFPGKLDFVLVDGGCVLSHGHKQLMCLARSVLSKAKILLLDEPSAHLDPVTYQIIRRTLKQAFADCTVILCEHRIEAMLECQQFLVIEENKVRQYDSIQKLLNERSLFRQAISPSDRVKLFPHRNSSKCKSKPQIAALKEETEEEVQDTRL

Chain of Potassium voltage-gated channel subfamily A member 10 (Q16322 whole entry): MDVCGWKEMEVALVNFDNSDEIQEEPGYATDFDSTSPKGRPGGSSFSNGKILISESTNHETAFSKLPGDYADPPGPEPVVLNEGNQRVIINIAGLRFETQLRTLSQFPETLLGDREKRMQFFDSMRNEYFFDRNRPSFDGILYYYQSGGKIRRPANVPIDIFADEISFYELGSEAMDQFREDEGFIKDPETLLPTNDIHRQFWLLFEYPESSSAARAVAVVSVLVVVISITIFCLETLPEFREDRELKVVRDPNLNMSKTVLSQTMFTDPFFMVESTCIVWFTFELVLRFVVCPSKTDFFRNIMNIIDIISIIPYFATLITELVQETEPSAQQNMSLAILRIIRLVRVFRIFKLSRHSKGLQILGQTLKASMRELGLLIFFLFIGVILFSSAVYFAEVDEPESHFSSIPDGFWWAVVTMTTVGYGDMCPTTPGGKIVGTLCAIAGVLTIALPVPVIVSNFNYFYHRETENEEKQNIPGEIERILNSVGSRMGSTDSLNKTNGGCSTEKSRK
Chain of hERG (KCNH2) (Q12809 whole entry): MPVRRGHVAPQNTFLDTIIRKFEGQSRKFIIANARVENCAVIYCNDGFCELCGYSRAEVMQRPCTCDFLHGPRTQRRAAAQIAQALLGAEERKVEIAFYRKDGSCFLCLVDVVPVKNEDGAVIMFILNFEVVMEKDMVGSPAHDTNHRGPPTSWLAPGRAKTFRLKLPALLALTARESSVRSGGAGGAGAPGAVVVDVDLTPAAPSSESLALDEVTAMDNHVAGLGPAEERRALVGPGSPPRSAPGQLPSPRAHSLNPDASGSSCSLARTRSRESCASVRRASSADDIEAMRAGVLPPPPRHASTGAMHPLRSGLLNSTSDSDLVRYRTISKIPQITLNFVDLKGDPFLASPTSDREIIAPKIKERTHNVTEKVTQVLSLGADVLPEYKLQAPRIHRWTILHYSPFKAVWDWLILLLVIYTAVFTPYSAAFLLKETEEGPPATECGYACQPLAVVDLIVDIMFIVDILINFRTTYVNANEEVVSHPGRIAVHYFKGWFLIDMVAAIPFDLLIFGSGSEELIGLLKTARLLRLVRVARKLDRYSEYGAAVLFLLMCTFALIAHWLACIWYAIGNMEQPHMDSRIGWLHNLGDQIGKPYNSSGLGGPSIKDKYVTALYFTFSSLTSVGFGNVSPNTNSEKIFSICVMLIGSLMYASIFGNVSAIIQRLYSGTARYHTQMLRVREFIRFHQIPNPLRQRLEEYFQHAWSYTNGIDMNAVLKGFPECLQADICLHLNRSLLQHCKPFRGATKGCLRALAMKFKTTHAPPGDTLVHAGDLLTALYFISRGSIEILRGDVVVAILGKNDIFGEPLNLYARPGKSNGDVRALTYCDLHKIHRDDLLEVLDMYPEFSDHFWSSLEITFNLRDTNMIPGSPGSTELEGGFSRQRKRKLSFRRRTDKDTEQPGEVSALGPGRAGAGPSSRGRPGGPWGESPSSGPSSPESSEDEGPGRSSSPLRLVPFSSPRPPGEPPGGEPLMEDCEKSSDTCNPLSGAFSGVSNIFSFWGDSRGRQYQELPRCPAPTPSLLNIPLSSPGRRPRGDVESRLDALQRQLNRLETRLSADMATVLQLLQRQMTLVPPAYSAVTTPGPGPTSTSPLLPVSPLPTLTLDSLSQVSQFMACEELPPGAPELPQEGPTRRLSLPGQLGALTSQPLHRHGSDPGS
Chain of RAC-beta serine/threonine-protein kinase (P31751 whole entry): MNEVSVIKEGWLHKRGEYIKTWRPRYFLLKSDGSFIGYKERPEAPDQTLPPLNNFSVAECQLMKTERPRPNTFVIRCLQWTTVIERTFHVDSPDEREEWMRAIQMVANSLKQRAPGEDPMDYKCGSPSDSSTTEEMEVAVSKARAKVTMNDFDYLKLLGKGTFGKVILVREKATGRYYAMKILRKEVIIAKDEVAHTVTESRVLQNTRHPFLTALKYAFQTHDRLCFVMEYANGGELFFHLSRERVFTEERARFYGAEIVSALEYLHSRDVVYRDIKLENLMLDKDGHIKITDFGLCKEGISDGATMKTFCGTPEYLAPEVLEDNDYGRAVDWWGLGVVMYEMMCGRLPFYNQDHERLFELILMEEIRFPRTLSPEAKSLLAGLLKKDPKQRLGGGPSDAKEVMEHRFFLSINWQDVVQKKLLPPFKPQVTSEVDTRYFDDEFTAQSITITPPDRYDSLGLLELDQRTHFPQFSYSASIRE
Chain of Potassium/sodium hyperpolarization-activated cyclic nucleotide-gated channel 2 (Q9UL51 whole entry): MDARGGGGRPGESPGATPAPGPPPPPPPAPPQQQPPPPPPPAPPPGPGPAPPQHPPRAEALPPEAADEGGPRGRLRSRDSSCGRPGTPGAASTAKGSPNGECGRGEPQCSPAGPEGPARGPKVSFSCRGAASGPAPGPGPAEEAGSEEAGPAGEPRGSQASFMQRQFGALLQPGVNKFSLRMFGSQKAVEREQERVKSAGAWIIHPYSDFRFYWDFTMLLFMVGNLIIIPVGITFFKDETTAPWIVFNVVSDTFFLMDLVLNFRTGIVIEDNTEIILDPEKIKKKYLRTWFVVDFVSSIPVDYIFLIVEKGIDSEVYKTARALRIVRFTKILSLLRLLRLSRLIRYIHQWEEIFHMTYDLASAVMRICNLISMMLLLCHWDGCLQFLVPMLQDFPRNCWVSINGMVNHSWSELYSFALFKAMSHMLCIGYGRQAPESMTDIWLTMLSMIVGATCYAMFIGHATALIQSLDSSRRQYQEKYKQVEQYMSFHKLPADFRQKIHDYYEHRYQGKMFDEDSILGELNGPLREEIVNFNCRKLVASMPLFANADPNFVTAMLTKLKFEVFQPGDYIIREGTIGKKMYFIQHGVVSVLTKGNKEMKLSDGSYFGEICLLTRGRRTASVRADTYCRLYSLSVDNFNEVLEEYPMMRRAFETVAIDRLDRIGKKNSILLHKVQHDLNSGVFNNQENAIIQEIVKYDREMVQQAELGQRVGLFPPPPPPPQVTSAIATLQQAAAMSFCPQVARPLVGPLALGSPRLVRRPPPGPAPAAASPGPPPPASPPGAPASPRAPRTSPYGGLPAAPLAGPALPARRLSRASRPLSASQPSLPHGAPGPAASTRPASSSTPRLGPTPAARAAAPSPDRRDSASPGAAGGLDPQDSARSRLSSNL
Chain of Potassium voltage-gated channel subfamily A member 7 (Q96RP8 whole entry): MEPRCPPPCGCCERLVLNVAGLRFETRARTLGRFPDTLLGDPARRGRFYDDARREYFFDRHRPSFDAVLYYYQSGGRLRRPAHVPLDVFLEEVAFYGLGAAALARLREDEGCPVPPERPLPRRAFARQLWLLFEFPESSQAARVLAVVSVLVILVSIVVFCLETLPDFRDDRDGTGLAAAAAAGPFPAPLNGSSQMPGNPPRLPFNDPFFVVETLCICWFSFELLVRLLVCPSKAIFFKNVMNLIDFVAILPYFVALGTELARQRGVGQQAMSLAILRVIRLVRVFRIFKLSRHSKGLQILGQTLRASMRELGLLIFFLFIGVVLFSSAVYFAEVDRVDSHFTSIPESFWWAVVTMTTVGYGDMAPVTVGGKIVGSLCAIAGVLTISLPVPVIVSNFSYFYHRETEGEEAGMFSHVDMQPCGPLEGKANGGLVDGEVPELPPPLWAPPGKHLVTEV

Question: For CNC(=O)C[C@@H]1C[C@@H](c2ccc(F)c(F)c2)[C@H](NC(=O)c2cc(-c3c(Cl)cnn3C)c(Cl)o2)CN1, which inhibition at 3 µM (hERG (KCNH2)) is on record?
Answer: The inhibition at 3 µM was 4%.

Question: What about the “inhibition (INH)” value [1] of the same compound?
Answer: Its value is “Not Active”.

Question: And the Tmax [2]?
Answer: Its Tmax is 1.8 h.

Question: And the Drug uptake [3]?
Answer: The Drug uptake was 560 ng/mL.

Question: What about the Activity (SK-OV-3 [4]) of the same compound?
Answer: The Activity was 39.88%.

Question: And the IC50 (HCT-116)?
Answer: The IC50 was 1100 nM.

Question: What about the “inhibition (INH)” value [5] of the same compound?
Answer: The value was “Not Active”.

Question: And the “inhibition (INH)” value [6]?
Answer: The value was “Not Active”.

Question: What about the IC50 [7] of the same compound?
Answer: The IC50 was 44 nM.

Question: And the remaining at 1 h, 100 ug/ml [8]?
Answer: The remaining at 1 h, 100 ug/ml was greater than 99%.

Question: What about the remaining at 1.5 h, 100 ug/ml [9] of the same compound?
Answer: Its remaining at 1.5 h, 100 ug/ml is 89%.

Question: And the MRT inf [10]?
Answer: Its MRT inf is 11.4 h.

Question: What about the Activity [11] of the same compound?
Answer: The Activity was “Non-Toxic”.

Question: And the “inhibition (INH)” value [12]?
Answer: The value was “Not Active”.

Question: What about the remaining at 1 h, 100 ug/ml [13] of the same compound?
Answer: The remaining at 1 h, 100 ug/ml was greater than 99%.

Question: And the remaining at 1.5 h, 100 ug/ml [14]?
Answer: Its remaining at 1.5 h, 100 ug/ml is 96%.

Question: What about the half-life [15] of the same compound?
Answer: The half-life was 3.3 h.

Question: And the IC50 [16]?
Answer: The IC50 was 64 nM.

Question: What about the “inhibition (INH)” value [17] of the same compound?
Answer: The value was “Not Active”.

Question: And the Activity [18]?
Answer: The Activity was “Toxic”.

Question: And the AUC(0-inf) [19]?
Answer: Its AUC(0-inf) is 21200 ng·h/mL.

Question: What about the IC50 [20] of the same compound?
Answer: The IC50 was 1.37 nM.

Question: And the “inhibition (INH)” value [21]?
Answer: The value was “Not Active”.

Question: And the IC50 [22]?
Answer: The IC50 was 1.2 nM.

Question: And the MRT inf [23]?
Answer: Its MRT inf is 5.3 h.

Question: What about the Cmax [24] of the same compound?
Answer: Its Cmax is 407 ng/mL.

Question: And the “inhibition (INH)” value [25]?
Answer: The value was “Not Active”.

Question: And the AUC(0-t) at 24 h [26]?
Answer: The AUC(0-t) at 24 h was 2440 ng·h/mL.

Question: And the fraction unbound at 8 h, 300 ng/ml [27]?
Answer: Its fraction unbound at 8 h, 300 ng/ml is 0.07.

Question: What about the bioavailability [28] of the same compound?
Answer: Its bioavailability is 48.4%.

Question: And the “inhibition (INH)” value [29]?
Answer: Its value is “Not Active”.

Question: And the “inhibition (INH)” value [30]?
Answer: The value was “Not Active”.

Question: What about the Activity [31] of the same compound?
Answer: Its Activity is “Non-Toxic”.

Question: What about the AUC(0-inf) [32] of the same compound?
Answer: The AUC(0-inf) was 3090 ng·h/mL.

Question: And the half-life [33]?
Answer: The half-life was 6.4 h.

Question: What about the IC50 [34] of the same compound?
Answer: Its IC50 is 131 nM.

Question: What about the Tmax [35] of the same compound?
Answer: The Tmax was 1 h.

Question: And the IC50 [36]?
Answer: The IC50 was 8.9 nM.

Question: And the Activity (SK-OV-3 [37])?
Answer: The Activity was 64.22%.

Question: And the IC50 [38]?
Answer: Its IC50 is 0.3 nM.

Question: And the “inhibition (INH)” value [39]?
Answer: Its value is “Not Active”.
